Patent US8470872B2, “Compounds with activity at estrogen receptors” (Acadia Pharmaceuticals Inc., priority 2007, dated 2013)

Tests used:
ERα [1] = molecular target: T1, ERα (Homo sapiens, UniProt P03372); assay: R-SAT (Receptor Selection and Amplification Technology) functional assay, ERα; assay type: cell-based; set-up: expressed in transfected cells; host or cells: NIH-3T3 fibroblasts, transient transfection; conditions: NIH-3T3 fibroblasts transfected with receptor, na = not active; for EC50: read-out: R-SAT ERα pEC50 (converted)
T1 sequence (P03372 1-595): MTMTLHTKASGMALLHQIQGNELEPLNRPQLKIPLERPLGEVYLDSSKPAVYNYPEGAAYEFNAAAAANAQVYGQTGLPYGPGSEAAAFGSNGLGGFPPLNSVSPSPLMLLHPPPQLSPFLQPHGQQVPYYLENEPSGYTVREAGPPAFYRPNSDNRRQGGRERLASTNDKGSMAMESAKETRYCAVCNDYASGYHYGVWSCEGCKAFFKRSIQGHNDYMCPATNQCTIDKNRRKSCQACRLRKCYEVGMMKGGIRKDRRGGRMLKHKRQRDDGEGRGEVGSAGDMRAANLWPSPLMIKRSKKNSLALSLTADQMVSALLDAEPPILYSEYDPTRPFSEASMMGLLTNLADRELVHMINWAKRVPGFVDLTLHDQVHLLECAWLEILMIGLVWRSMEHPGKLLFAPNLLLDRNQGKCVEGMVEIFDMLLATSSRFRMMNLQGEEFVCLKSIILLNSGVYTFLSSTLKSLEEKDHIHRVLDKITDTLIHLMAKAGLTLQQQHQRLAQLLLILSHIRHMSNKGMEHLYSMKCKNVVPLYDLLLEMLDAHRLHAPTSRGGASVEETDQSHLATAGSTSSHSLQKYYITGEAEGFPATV
Text: (§1) R-SAT® (Receptor Selection and Amplification Technology) is a cell-based functional assay that allows one to monitor receptor-dependent proliferative responses and has been described elsewhere. The technology has been validated for a number of receptors including GPCRs (Brauner-Osborne and Brann 1996), RTKs (Burstein et al. 1998), cytokine receptors (Piu et al. 2002) and nuclear receptors (Piu et al. 2005; Piu et al. 2006). This process is achieved by partial cellular transformation via loss of contact inhibition and growth factor dependency. Monitoring is achieved by transfecting the cells with a β-galactosidase reporter gene vector whose expression is under a constitutively active promoter. Briefly, NIH-3T3 fibroblasts were plated overnight in 96-wells plates in DMEM 10% calf serum (Hyclone) and grown to 60-70% confluency prior to transfection. Transient transfections were performed using Polyfect (Qiagen) according to manufacturer's instructions. Typically a transfection mix would consist of the receptor and the β-galactosidase expression vectors. Sixteen hours post-transfection, cells were incubated with different doses of ligand in DMEM containing 30% Ultraculture (Hyclone) and 0.4% calf serum (Hyclone) to generate a dose response curve. After 5 days, plates were developed by adding onto the washed cells a solution containing the β-galactosidase substrate o-nitrophenyl-D-galacto pyranoside ONPG (in phosphate-buffered saline with 5% Nonidet P-40 detergent) as described (Piu et al. 2002). Plates were read using a microplate reader at 420 nm. Data from R-SAT® assays were fit to the equation: r=A+B(x/(x+c)), where A=minimum response, B=maximum response minus minimum response, c=EC50, r=response, and x=concentration of ligand. Curves were generated using the curve fitting softwares Excel Fit and GraphPad Prism (San Diego, Calif.).

ERα [2] = molecular target: T1, ERα; assay: Competitive 3H-estradiol binding assay, ERα; conditions: cytosolic extracts of transfected HEK293T cells, 1 nM 3H-estradiol; read-out: Binding ERα pKi (converted)
Protocol: (§2) HEK293T cells were transiently transfected for 48 hours with expression vectors encoding ERα or ERβ, before being serum starved for 4-6 hours. Cells were then harvested by scraping in ice-cold PBS and subsequently lysed using a cold buffer containing 10 mM Tris pH 7.4, 1 mM EDTA, 1 mM DTT before being subjected to polytron twice for 10 seconds. Cytosolic extracts were isolated by centrifugation at 15000 g for 30 minutes at 4° C. Competitive binding of the test compounds or the estradiol control was performed on 20 uL extract by overnight incubation at 4° C. in a total volume of 100 μL containing 1 nM ^3H-estradiol (Perkin Elmer, Boston, Mass.). The bound fraction was separated from the unbound one by the addition of 100 μL of Dextran coated charcoal, incubated for 10 minutes and subsequent centrifugation at 1000 rpm for 10 minutes. Samples (100 μL per sample) were then analyzed by liquid scintillation. Data was then analyzed using the curve fitting software GraphPad Prism.

ERβ [3] = molecular target: T2, ERβ (Homo sapiens, UniProt Q92731); assay: Luciferase reporter gene assay (3*ERE) in HEK293 cells, ERβ; assay type: cell-based; conditions: 48 hours with test compounds; for EC50: read-out: Luciferase ERβ pEC50 (converted)
T2 sequence (Q92731 whole entry, species assumed): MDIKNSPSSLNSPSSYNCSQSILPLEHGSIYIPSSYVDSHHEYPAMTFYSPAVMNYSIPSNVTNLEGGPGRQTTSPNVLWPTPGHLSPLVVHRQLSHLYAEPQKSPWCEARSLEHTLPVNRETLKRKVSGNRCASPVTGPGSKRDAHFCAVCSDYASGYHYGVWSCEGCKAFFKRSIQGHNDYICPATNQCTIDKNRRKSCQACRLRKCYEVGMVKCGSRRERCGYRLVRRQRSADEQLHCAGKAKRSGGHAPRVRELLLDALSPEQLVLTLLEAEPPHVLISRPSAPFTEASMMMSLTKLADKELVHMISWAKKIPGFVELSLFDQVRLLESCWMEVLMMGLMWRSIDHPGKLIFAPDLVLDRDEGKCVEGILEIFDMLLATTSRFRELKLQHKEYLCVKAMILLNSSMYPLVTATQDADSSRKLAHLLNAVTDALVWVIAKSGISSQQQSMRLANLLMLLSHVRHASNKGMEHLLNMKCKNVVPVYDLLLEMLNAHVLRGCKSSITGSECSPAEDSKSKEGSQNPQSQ
Protocol: (§3) HEK293 cells were grown to 70% confluency in DMEM containing 10% calf serum (Hyclone) prior to transfection. On the day of transfection (day 1), expression vectors for ERa or ERb were cotransfected along a construct containing a synthetic 3*ERE (estrogen response element) upstream of the luciferase gene (Panomics), using Polyfect (Qiagen) per manufacturer's recommendations. Sixteen hours post-transfection, cells were incubated in serum free DMEM. On day 3, cells were incubated with the test compounds for 48 hours in serum free DMEM. Cells extracts were then obtained by lyzing and the Luciferase activity measured. All of these steps were performed using a commercially available kit (Promega).

ERβ [4] = molecular target: T2, ERβ; assay: Competitive 3H-estradiol binding assay, ERβ; conditions: cytosolic extracts of transfected HEK293T cells, 1 nM 3H-estradiol; read-out: Binding ERβ pKi (converted)
Protocol: as §2

ERβ [5] = molecular target: T2, ERβ; assay: R-SAT (Receptor Selection and Amplification Technology) functional assay, ERβ; assay type: cell-based; set-up: expressed in transfected cells; host or cells: NIH-3T3 fibroblasts, transient transfection; conditions: NIH-3T3 fibroblasts transfected with receptor, na = not active; for EC50: read-out: R-SAT ERβ pEC50 (converted)
Text: as §1

ERα [6] = molecular target: T1, ERα; assay: Luciferase reporter gene assay (3*ERE) in HEK293 cells, ERα; assay type: cell-based; conditions: 48 hours with test compounds; for EC50: read-out: Luciferase ERα pEC50 (converted)
Protocol: as §3

Row | Structure (SMILES) | R-SAT ERα % Eff (ERα [1]) | EC50 (ERα [1]) | Ki (ERα [2]) | Luciferase ERβ % Eff (ERβ [3]) | EC50 (ERβ [3]) | Ki (ERβ [4]) | R-SAT ERβ % Eff (ERβ [5]) | EC50 (ERβ [5]) | Luciferase ERα % Eff (ERα [6]) | EC50 (ERα [6])
1 | Oc1ccc(C23CCCCCC2Oc2ccccc23)cc1 (centres unmarked) [Compound 807, 4-(6,7,8,9,10,10a-Hexahydro-5aH-benzo[b]cyclohepta[d]furan-10a-yl)phenol] | 93% | 398 nM | 79.4 nM | 81% | 0.316 nM | 5.01 nM | 99% | 1.26 nM | 51% | 316 nM
2 | Oc1ccc(C23CCCCCC2Oc2cccc(F)c23)cc1 (single isomer, unassigned) [Compound 982, 4-(1-Fluoro-6,7,8,9,10,10a-hexahydro-5aH-benzo[b]cyclohepta[d]-furan-10a-yl)phenol] | 108% | 15.8 nM |  |  |  |  | 87% | 0.0501 nM |  | 
3 | Oc1ccc(C23CCCCCC2Oc2ccc(F)cc23)cc1 (centres unmarked) [Compound 448, 4-(2-Fluoro-6,7,8,9,10,10a-hexahydro-5aH-benzo[b]cyclohepta[d]-furan-10a-yl)phenol] | 92% | 398 nM |  | 114% | 0.1 nM |  | 83% | 1.26 nM | 36% | 316 nM
4 | Oc1ccc(C23CCCCC2Oc2ccccc23)cc1 (centres unmarked) [Compound 961, 4-(5a,6,7,8,9,9a-Hexahydrodibenzo[b,d]furan-9a-yl)phenol] | 95% | 1000 nM |  | 86% | 7.94 nM |  | 100% | 10 nM | 54% | 794 nM
5 | Oc1ccc(C23CCCCCC2Oc2c(F)cccc23)cc1 (centres unmarked) [Compound 447, 4-(4-Fluoro-6,7,8,9,10,10a-hexahydro-5aH-benzo[b]cyclohepta-[d]furan-10a-yl)phenol] | 97% | 398 nM |  | 122% | 0.631 nM |  | 85% | 5.01 nM | 25% | 398 nM
6 | Oc1ccc(C23CCCCC=C2Oc2cccc(F)c23)cc1 (centres unmarked) [Compound 349, (E)-4-(1-Fluoro-8,9,10,10a-tetrahydro-7H-benzo[b]cyclohepta-[d]furan-10a-yl)phenol] | 16% |  |  |  | 316 nM |  | 24% |  | 6.4% | 

Second part, the compound after the results:

Row | R-SAT ERα % Eff (ERα [1]) | EC50 (ERα [1]) | Ki (ERα [2]) | Luciferase ERβ % Eff (ERβ [3]) | EC50 (ERβ [3]) | Ki (ERβ [4]) | R-SAT ERβ % Eff (ERβ [5]) | EC50 (ERβ [5]) | Luciferase ERα % Eff (ERα [6]) | EC50 (ERα [6]) | Structure (SMILES)
7 | 37% | 794 nM |  | 80% | 7.94 nM |  | 76% | 10 nM | 27% | 1260 nM | Oc1ccc(C23CCCCCC2Oc2cccc(F)c23)cc1 (single isomer, unassigned) [Compound 232, 4-(1-Fluoro-6,7,8,9,10,10a-hexahydro-5aH-benzo[b]cyclohepta[d]-furan-10a-yl)phenol]
8 | 86% | 158 nM |  | 114% | 0.158 nM |  | 91% | 1 nM | 43% | 200 nM | Oc1ccc(C23CCCCCC2Oc2cccc(F)c23)cc1 (single isomer, unassigned) [Compound 231, 4-(1-Fluoro-6,7,8,9,10,10a-hexahydro-5aH-benzo[b]cyclohepta[d]-furan-10a-yl)phenol]
9 | 70% | 631 nM | 126 nM | 129% | 2.51 nM | 25.1 nM | 97% | 6.31 nM | 51% | 631 nM | Oc1ccc(C23CCCCC2Oc2cccc(F)c23)cc1 (centres unmarked) [Compound 130, 4-(1-Fluoro-5a,6,7,8,9,9a-hexahydrodibenzo[b,d]furan-9a-yl)phenol]
